# In patent US20180256673A1, “METHODS FOR TREATING FUNGAL INFECTIONS” (priority 2015, published 2018):
# Several values for one entry are separate records, joined by “and”; a condition that tells them apart may be missing. Identical values can stand only once. Like-named read-outs stand apart in the source and are kept apart here. Starred links: 1 amine or outer side, 2 acyl side, 3 side chain; linkers in the order of their positions; H or OH if unused. Positions of bridges follow the written chain, without caps; N, C: chain ends. Non-standard residues stand in square brackets, D forms with d. Residues, ends and D or L forms follow the SMILES beside them. *: point of attachment. Orn(4R-OH,5R-OCH2CH2NMe3+) = C[N+](C)(C)CCO[C@@H](N[*:3])[C@H](O)C[C@H](N[*:1])C(=O)[*:2]; pTerphenylCO(4''-OnC5H11) = CCCCCOc1ccc(-c2ccc(-c3ccc(C(=O)*)cc3)cc2)cc1; hTyr(3S-OH,4S-OH) = N[C@H](C(=O)O)[C@H](O)[C@@H](O)c1ccc(O)cc1; Pro(3S-OH,4S-Me) = C[C@H]1CN[C@H](C(=O)O)[C@H]1O; Hyp = O=C(O)[C@@H]1C[C@@H](O)CN1
# Key:
# C. albicans [1] = assay: Mutant prevention concentration (MPC) determination; format: cell-based, Candida albicans; details: wild-type isolates; 24 hr, ~1×10^7 CFU/mL
# C. glabrata = assay: as above; format: cell-based, Candida glabrata; details: wild-type isolates; 24 hr, ~1×10^7 CFU/mL
# C. albicans NRRL Y-477 [2] = format: cell-based, Candida albicans
# Experimental: (§1) Spontaneous mutant selection. […] Three individual colonies from each strain were used to start cultures in RPMI. […] One milliliter aliquots were spread onto SDA plates containing drug with sterile glass beads. Starting viable count was enumerated by triplicate plating of serial dilutions of the starting inoculum. […] Glycerol stocks of putative mutant colonies were stored at −80° C. […] Spontaneous mutation frequencies were calculated by dividing the number of resistant colonies on a given plate by the starting inoculum plated. A subset of mutants (weighted heavily towards those selected with CMP1) were then evaluated by MIC and sequencing of FKS gene hot spot regions.
# C. parapsilosis CP02 = format: cell-based, Candida parapsilosis
# Experimental: as §1
# [3] = system: C. glabrata ATCC 90030, ATCC 2001; assay: microbe, parasite or virus in culture; format: cell-based, Candida glabrata; details: Nakaseomyces glabratus
# C. krusei ATCC 6258 = assay: microbe, parasite or virus in culture; format: cell-based, Candida krusei; details: Pichia kudriavzevii
# [4] = system: C. glabrata vaginal isolates; assay: Susceptibility testing of VVC clinical isolates at pH 7 and 4 (CLSI M27-A3); format: cell-based, Candida glabrata; details: for MIC90: Nakaseomyces glabratus
# [5] = system: C. tropicalis vaginal isolates; assay: as above; format: cell-based; details: Candida tropicalis
# Candida albicans = assay: Broth microdilution of invasive fungal isolates (CLSI M27-A3/M38-A2); format: cell-based
# Candida parapsilosis = assay: as above; format: cell-based; details: 92 isolates
# Candida tropicalis = assay: as above; format: cell-based
# Candida orthopsilosis = assay: as above; format: cell-based; details: 10 isolates
# [6] = system: azole-resistant Candida albicans (R357); assay: Disseminated infection model in neutropenic ICR mice, kidney fungal counts (Example 10, Tables 22-23); format: in vivo
# [7] = target: 1,3-β-D-glucan synthase from C. albicans (Candida albicans, UniProt O13428); assay: Glucan synthase (GS) inhibition assay
# [8] = target: 1,3-β-D-glucan synthase from C. albicans (Candida albicans, UniProt O13428, F641S); assay: Glucan synthase (GS) inhibition assay; details: IC50, DPL18; Fks1 F641S
# Chain of 1,3-β-D-glucan synthase from C. albicans (Candida albicans, UniProt O13428, F641S) (O13428 entry or part of it F641S): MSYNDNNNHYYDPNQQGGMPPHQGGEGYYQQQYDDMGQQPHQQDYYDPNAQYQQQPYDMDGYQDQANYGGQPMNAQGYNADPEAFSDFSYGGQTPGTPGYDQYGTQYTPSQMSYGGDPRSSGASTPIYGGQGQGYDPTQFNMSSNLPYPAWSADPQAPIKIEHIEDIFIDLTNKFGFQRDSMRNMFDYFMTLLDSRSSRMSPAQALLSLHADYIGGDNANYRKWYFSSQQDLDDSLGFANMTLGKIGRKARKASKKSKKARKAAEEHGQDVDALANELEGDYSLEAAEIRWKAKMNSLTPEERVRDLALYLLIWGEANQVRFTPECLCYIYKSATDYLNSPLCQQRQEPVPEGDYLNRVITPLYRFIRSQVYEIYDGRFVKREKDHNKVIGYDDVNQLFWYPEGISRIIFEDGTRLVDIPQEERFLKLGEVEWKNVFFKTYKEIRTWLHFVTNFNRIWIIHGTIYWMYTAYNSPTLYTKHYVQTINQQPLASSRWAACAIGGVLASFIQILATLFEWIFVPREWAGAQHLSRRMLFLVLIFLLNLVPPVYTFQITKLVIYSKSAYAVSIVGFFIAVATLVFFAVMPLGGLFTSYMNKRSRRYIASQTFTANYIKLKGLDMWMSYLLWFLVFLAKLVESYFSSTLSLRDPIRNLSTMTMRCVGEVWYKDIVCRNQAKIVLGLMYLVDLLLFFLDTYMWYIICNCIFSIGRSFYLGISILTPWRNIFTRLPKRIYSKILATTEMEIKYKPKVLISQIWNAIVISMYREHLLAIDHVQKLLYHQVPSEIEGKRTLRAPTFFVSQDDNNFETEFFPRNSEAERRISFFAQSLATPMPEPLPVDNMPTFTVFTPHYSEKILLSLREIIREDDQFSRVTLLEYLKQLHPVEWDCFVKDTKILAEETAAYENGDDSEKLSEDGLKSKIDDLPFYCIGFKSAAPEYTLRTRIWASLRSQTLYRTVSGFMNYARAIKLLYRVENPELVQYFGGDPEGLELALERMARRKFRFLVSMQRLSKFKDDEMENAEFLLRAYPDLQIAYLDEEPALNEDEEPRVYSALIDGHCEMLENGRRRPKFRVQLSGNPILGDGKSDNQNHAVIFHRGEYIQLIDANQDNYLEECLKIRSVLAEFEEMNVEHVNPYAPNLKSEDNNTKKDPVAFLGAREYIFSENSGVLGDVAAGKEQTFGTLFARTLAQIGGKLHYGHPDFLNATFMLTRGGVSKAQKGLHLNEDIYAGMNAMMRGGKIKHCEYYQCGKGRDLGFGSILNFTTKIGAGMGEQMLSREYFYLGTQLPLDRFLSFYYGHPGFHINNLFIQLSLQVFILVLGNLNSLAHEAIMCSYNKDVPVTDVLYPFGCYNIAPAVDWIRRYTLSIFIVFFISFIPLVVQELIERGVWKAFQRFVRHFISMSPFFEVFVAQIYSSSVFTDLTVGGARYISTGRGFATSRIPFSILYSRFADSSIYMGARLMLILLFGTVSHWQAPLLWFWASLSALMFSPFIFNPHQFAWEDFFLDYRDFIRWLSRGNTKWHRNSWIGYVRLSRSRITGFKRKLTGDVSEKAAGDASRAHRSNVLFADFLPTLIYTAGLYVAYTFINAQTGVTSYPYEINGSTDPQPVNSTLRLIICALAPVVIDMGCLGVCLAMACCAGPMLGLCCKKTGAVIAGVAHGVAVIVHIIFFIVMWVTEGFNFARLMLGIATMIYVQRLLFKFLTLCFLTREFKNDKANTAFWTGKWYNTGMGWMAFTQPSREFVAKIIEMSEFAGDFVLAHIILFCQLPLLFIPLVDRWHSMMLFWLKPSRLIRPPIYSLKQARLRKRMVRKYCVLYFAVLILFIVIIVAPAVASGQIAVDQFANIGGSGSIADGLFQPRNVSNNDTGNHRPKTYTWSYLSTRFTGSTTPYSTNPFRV
# C. parapsilosis = assay: Antifungal susceptibility testing (CLSI M27-S4); details: WT (19 isolates); 24 hr
# Experimental: (§2) Antifungal susceptibility testing. Antifungal susceptibility testing was performed in triplicate for a collection of 95 Candida strains (20 C. albicans, 20 C. glabrata, 2 C. dubliniensis, 15 C. krusei, 19 C. parapsilosis, and 19 C. tropicalis) that included 30 isolates showing an echinocandin resistance (ER) phenotype (caspofungin-resistant) in accordance with the guidelines described in the Clinical and Laboratory Standards Institute (CLSI) document M27-S4. […] Stock solutions of the drugs were kept at −86° C.
# C. albicans NRRL Y-477 [9] = assay: Broth microdilution MIC (CLSI), Examples 3 and 4; details: Candida albicans
# Experimental: Antifungal susceptibility testing. […] MIC assays were performed in triplicate.
# C. albicans [10] = assay: Antifungal susceptibility testing (CLSI M27-S4), WT and echinocandin-resistant isolates; details: for MIC median (range): 24 hr
# Experimental: as §2
# C. tropicalis = assay: as above; details: 24 hr
# Experimental: as §2
# [11] = SDA, minimum concentration to cleanly inhibit growth
# [12] = replicate plates 1-3, listed as CMP1
smiles,measurement,setting,value
"CCCCCOc1ccc(-c2ccc(-c3ccc(C(=O)N[C@H]4C[C@@H](O)[C@@H](OCC[N+](C)(C)C)NC(=O)[C@@H]5[C@@H](O)[C@@H](C)CN5C(=O)[C@H]([C@@H](C)O)NC(=O)[C@H]([C@H](O)[C@@H](O)c5ccc(O)cc5)NC(=O)[C@@H]5C[C@@H](O)CN5C(=O)[C@H]([C@@H](C)O)NC4=O)cc3)cc2)cc1 [Compound 1] ({pTerphenylCO(4''-OnC5H11)}-[Orn(4R-OH,5R-OCH2CH2NMe3+)]T[Hyp][hTyr(3S-OH,4S-OH)]T[Pro(3S-OH,4S-Me)]; lactam 1-C)",MPC,C. albicans [1],16 µg/mL
same,MPC,C. glabrata,16 µg/mL
same,Median mutation frequency,C. albicans NRRL Y-477 [2],5.00E−08
same,Plate concentration,C. albicans NRRL Y-477 [2]; [11],0.06 µg/mL
same,Freq. (replicate mutation frequency),C. albicans NRRL Y-477 [2]; [12],5.00E−08 and 2.27E−08 and 5.47E−08
same,Median mutation frequency,C. parapsilosis CP02,2.08E−08
same,Plate concentration,C. parapsilosis CP02; [11],8 µg/mL
same,Freq. (replicate mutation frequency),C. parapsilosis CP02; [12],2.08E−08 (2×) and 9.62E−09
same,MIC,"[3]; 48 h, ATCC 90030 P20-1, selecting drug ANID, Fks2 HS1 D666I, 48 h read",2 µg/mL
same,MIC,"[3]; ATCC 2001 P20-2, selecting drug CAS",2 µg/mL
same,MIC,"[3]; ATCC 2001 P20-2, selecting drug CMP1",1 µg/mL
same,MIC,"[3]; ATCC 90030 P20-2, selecting drug CMP1",1 µg/mL
same,MIC,"[3]; read-out: MIC P20, ATCC 2001, total population after 20 passages with the selecting drug, MIC of selecting drug",1 µg/mL
same,MIC,"[3]; read-out: MIC P20, ATCC 90030, total population after 20 passages with the selecting drug, MIC of selecting drug",1 µg/mL
same,MIC,C. krusei ATCC 6258; ATCC6258,0.125 µg/mL
same,MIC,"C. krusei ATCC 6258; ATCC6258, read-out: MIC P20",0.125 µg/mL
same,Number of isolates at MIC 0.125 μg/mL,"[4]; 21 VVC isolates, 24 h, pH 4",2
same,Number of isolates at MIC 0.25 μg/mL,"[4]; 21 VVC isolates, 24 h, pH 4",3
same,Number of isolates at MIC 0.5 μg/mL,"[4]; 21 VVC isolates, 24 h, pH 4",15
same,Number of isolates at MIC 2 μg/mL,"[4]; 21 VVC isolates, 24 h, pH 4",1
same,Number of isolates at MIC 0.06 μg/mL,"[4]; 21 VVC isolates, 24 h, pH 7",3
same,Number of isolates at MIC 0.125 μg/mL,"[4]; 21 VVC isolates, 24 h, pH 7",17
same,Number of isolates at MIC 2 μg/mL,"[4]; 21 VVC isolates, 24 h, pH 7",1
same,Number of isolates at MIC 0.25 μg/mL,"[4]; 21 VVC isolates, 48 h, pH 4",2
same,Number of isolates at MIC 0.5 μg/mL,"[4]; 21 VVC isolates, 48 h, pH 4",8
same,Number of isolates at MIC 1 μg/mL,"[4]; 21 VVC isolates, 48 h, pH 4",9
same,Number of isolates at MIC 2 μg/mL,"[4]; 21 VVC isolates, 48 h, pH 4",2
same,Number of isolates at MIC 0.06 μg/mL,"[4]; 21 VVC isolates, 48 h, pH 7",2
same,Number of isolates at MIC 0.125 μg/mL,"[4]; 21 VVC isolates, 48 h, pH 7",16
same,Number of isolates at MIC 0.25 μg/mL,"[4]; 21 VVC isolates, 48 h, pH 7",1
same,Number of isolates at MIC 0.5 μg/mL,"[4]; 21 VVC isolates, 48 h, pH 7",1
same,Number of isolates at MIC 2 μg/mL,"[4]; 21 VVC isolates, 48 h, pH 7",1
same,MIC90,"[4]; 24 h, pH 4",0.5 µg/mL
same,MIC90,"[4]; 24 h, pH 7",0.125 µg/mL
same,MIC90,"[4]; 48 h, pH 4",1 µg/mL
same,MIC90,"[4]; 48 h, pH 7",0.25 µg/mL
same,MIC90,"[5]; 24 h, pH 4",0.5 µg/mL
same,MIC90,"[5]; 24 h, pH 7",0.125 µg/mL
same,MIC90,"[5]; 48 h, pH 4",2 µg/mL
same,MIC90,"[5]; 48 h, pH 7",0.125 µg/mL
same,Cumulative % of isolates inhibited at MIC 0.015 μg/mL,Candida albicans; 251 isolates,(49.4) %
same,Cumulative % of isolates inhibited at MIC 0.03 μg/mL,Candida albicans; 251 isolates,(85.7) %
same,Cumulative % of isolates inhibited at MIC 0.06 μg/mL,Candida albicans; 251 isolates,(96.8) %
same,Cumulative % of isolates inhibited at MIC 0.12 μg/mL,Candida albicans; 251 isolates,(100.0) %
same,Cumulative % of isolates inhibited at MIC ≤0.008 μg/mL,Candida albicans; 251 isolates,(6.8) %
same,Number of isolates inhibited at MIC 0.015 μg/mL,Candida albicans; 251 isolates,107
same,Number of isolates inhibited at MIC 0.03 μg/mL,Candida albicans; 251 isolates,91
same,Number of isolates inhibited at MIC 0.06 μg/mL,Candida albicans; 251 isolates,28
same,Number of isolates inhibited at MIC 0.12 μg/mL,Candida albicans; 251 isolates,8
same,Number of isolates inhibited at MIC ≤0.008 μg/mL,Candida albicans; 251 isolates,17
same,MIC50,"Candida albicans; Candida albicans, 251 isolates, read-out: MIC50",0.03 µg/mL
same,MIC90,"Candida albicans; Candida albicans, 251 isolates, read-out: MIC90",0.06 µg/mL
same,concentration at which all isolates were inhibited,Candida albicans; all 251 isolates,≤ 0.12 µg/mL
same,Cumulative % of isolates inhibited at MIC 0.5 μg/mL,Candida parapsilosis,(23.9) %
same,Cumulative % of isolates inhibited at MIC 1 μg/mL,Candida parapsilosis,(62.0) %
same,Cumulative % of isolates inhibited at MIC 2 μg/mL,Candida parapsilosis,(98.9) %
same,Cumulative % of isolates inhibited at MIC 4 μg/mL,Candida parapsilosis,(100.0) %
same,Number of isolates inhibited at MIC 0.5 μg/mL,Candida parapsilosis,22
same,Number of isolates inhibited at MIC 1 μg/mL,Candida parapsilosis,35
same,Number of isolates inhibited at MIC 2 μg/mL,Candida parapsilosis,34
same,Number of isolates inhibited at MIC 4 μg/mL,Candida parapsilosis,1
same,MIC50,"Candida parapsilosis; Lodderomyces parapsilosis, read-out: MIC50",1 µg/mL
same,MIC90,"Candida parapsilosis; Lodderomyces parapsilosis, read-out: MIC90",2 µg/mL
same,Cumulative % of isolates inhibited at MIC 0.015 μg/mL,Candida tropicalis; 51 isolates,(56.9) %
same,Cumulative % of isolates inhibited at MIC 0.03 μg/mL,Candida tropicalis; 51 isolates,(88.2) %
same,Cumulative % of isolates inhibited at MIC 0.06 μg/mL,Candida tropicalis; 51 isolates,(100.0) %
same,Cumulative % of isolates inhibited at MIC ≤0.008 μg/mL,Candida tropicalis; 51 isolates,(3.9) %
same,Number of isolates inhibited at MIC 0.015 μg/mL,Candida tropicalis; 51 isolates,27
same,Number of isolates inhibited at MIC 0.03 μg/mL,Candida tropicalis; 51 isolates,16
same,Number of isolates inhibited at MIC 0.06 μg/mL,Candida tropicalis; 51 isolates,6
same,Number of isolates inhibited at MIC ≤0.008 μg/mL,Candida tropicalis; 51 isolates,2
same,MIC50,"Candida tropicalis; Candida tropicalis, 51 isolates, read-out: MIC50",0.015 µg/mL
same,MIC90,"Candida tropicalis; Candida tropicalis, 51 isolates, read-out: MIC90",0.06 µg/mL
same,concentration at which all isolates were inhibited,Candida tropicalis; n=51,≤ 0.06 µg/mL
same,Cumulative % of isolates inhibited at MIC 0.12 μg/mL,Candida orthopsilosis,(10.0) %
same,Cumulative % of isolates inhibited at MIC 0.25 μg/mL,Candida orthopsilosis,(40.0) %
same,Cumulative % of isolates inhibited at MIC 0.5 μg/mL,Candida orthopsilosis,(50.0) %
same,Cumulative % of isolates inhibited at MIC 1 μg/mL,Candida orthopsilosis,(90.0) %
same,Cumulative % of isolates inhibited at MIC 2 μg/mL,Candida orthopsilosis,(100.0) %
same,Number of isolates inhibited at MIC 0.12 μg/mL,Candida orthopsilosis,1
same,Number of isolates inhibited at MIC 0.25 μg/mL,Candida orthopsilosis,3
same,Number of isolates inhibited at MIC 0.5 μg/mL,Candida orthopsilosis,1
same,Number of isolates inhibited at MIC 1 μg/mL,Candida orthopsilosis,4
same,Number of isolates inhibited at MIC 2 μg/mL,Candida orthopsilosis,1
same,MIC50,"Candida orthopsilosis; Lodderomyces orthopsilosis, read-out: MIC50",0.5 µg/mL
same,MIC90,"Candida orthopsilosis; Lodderomyces orthopsilosis, read-out: MIC90",1 µg/mL
same,reduction in fungal counts,"[6]; 3, 10, and 30 mg/kg IP once, 48 and 72 hr time points",two log reduction
same,"antimicrobial effect versus vehicle (one-way ANOVA, Dunnett's test)","[6]; 48 and 72 hr after infection, Compound 1 3, 10, 30 mg/kg IP, amphotericin B 1 and 3 mg/kg IV, fluconazole 20 mg/kg PO",Significant antimicrobial effects
same,IC50,"[7]; IC50, DPL1002, WT",11.6 nM
same,IC50,"[7]; IC50, glucan synthase, ATCC 90028, WT",11.4 nM
same,IC50,"[7]; glucan synthase, DPL22, Fks1p S645P/S",24.5 nM
same,IC50,[8],283 nM
same,MIC median (range),C. parapsilosis,2 (2-4) mg/L
same,MIC,C. albicans NRRL Y-477 [9]; NRRLY477,0.25 µg/mL
same,MIC,"C. albicans NRRL Y-477 [9]; NRRLY477, 24 h, read-out: Broth MIC",0.03 µg/mL
same,% of ER isolates with an MIC of ≤0.5 mg/L,C. albicans [10]; C. albicans ER isolates,60%
same,MIC median (range),C. albicans [10]; ER (10 isolates),0.50 (0.06-2) mg/L
same,MIC median (range),C. albicans [10]; WT (10 isolates),<0.03 (<0.03)^ mg/L
same,MIC median (range),C. tropicalis; ER (4 isolates),2.00 (0.5-2) mg/L
same,MIC median (range),C. tropicalis; WT (15 isolates),0.03 (0.03)^ mg/L
